Experimental data as given in US20150315188A1, “COMPOUNDS AND METHODS FOR TREATMENT OF HYPERTENSION” (MEDIVATION TECHNOLOGIES, INC., priority 2012, published 2015).
pKi: −log10 of the molar value.

Assays:
Set-up in all cases: purchased Milipore (Millipore)
[1] = molecular target: T1, Human adrenergic α2B receptor (Homo sapiens, UniProt P18089); assay: Radioligand binding, adrenergic α2B (Protocol Group B); conditions: Protocol Group B; for Percentage inhibition of ligand binding, Adrenergic α2B (10 nM): 10 nM compound, 0.01 µM; for Percentage inhibition of ligand binding, Adrenergic α2B (30 nM): 30 nM compound, 0.03 µM; for Percentage inhibition of ligand binding, Adrenergic α2B (0.1 μM) / inhibition at 0.1 µM: 0.1 μM compound; for inhibition at 0.1 µM: read-out: Percentage inhibition of ligand binding, Adrenergic α2B (0.1 μM)
T1 sequence (P18089 1-450): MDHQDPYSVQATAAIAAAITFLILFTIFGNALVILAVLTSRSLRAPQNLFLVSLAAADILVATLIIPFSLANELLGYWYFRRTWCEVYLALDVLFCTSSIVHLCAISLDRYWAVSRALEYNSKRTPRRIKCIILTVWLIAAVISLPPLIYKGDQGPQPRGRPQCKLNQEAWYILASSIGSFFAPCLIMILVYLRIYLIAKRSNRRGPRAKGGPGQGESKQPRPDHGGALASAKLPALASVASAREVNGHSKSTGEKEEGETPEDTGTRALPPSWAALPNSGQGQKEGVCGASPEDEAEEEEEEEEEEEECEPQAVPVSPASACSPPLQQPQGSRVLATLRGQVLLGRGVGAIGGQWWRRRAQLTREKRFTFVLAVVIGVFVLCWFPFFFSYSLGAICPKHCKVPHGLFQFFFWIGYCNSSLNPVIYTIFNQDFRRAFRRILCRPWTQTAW
In short: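 Recombinant human α2B receptor membranes incubated with compounds in 50 mM Tris-HCl pH 7.4, 5 mM MgCl2, 1 mM CaCl2, 0.2% BSA, 1% DMSO vehicle. Non-specific binding defined with 10 μM rauwolscine. Values are percent inhibition of specific binding or estimated Ki.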

[2] = molecular target: T2, Human adrenergic α2A receptor (Homo sapiens, UniProt P08913); assay: Radioligand binding, adrenergic α2A (Protocol Group B); conditions: Protocol Group B; for Percentage inhibition of ligand binding, Adrenergic α2A (0.1 μM): 0.1 μM compound
T2 sequence (P08913 1-465): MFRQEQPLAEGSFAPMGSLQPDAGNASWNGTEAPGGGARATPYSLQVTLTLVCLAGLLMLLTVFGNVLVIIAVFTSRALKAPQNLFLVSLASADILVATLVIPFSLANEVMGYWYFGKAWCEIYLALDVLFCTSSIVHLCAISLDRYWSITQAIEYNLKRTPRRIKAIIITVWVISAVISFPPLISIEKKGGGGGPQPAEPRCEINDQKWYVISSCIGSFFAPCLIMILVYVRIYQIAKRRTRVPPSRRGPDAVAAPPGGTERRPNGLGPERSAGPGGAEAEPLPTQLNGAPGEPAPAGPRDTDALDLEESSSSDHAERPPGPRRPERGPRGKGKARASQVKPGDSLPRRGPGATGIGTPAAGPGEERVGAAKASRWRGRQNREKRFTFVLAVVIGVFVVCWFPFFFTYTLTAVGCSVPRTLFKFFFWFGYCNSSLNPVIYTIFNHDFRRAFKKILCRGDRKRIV
In short: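 Membranes from recombinant cells expressing the receptor, in 50 mM Tris-HCl pH 7.4 with 5 mM MgCl2, 1 mM CaCl2, 0.2% BSA; compounds incubated with 2 nM [^3H]MK-912 for 60 min at 25° C. Nonspecific binding defined by 10 μM rauwolscine; filtration, counting; percent inhibition of specific binding, or estimated Ki.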

[3] = molecular target: T3, Human adrenergic α1B receptor (Homo sapiens, UniProt P35368); assay: Radioligand binding, adrenergic α1B (Protocol Group B); conditions: Protocol Group B; for Percentage inhibition of ligand binding, Adrenergic α1B (0.1 μM): 0.1 μM compound
T3 sequence (P35368 1-520): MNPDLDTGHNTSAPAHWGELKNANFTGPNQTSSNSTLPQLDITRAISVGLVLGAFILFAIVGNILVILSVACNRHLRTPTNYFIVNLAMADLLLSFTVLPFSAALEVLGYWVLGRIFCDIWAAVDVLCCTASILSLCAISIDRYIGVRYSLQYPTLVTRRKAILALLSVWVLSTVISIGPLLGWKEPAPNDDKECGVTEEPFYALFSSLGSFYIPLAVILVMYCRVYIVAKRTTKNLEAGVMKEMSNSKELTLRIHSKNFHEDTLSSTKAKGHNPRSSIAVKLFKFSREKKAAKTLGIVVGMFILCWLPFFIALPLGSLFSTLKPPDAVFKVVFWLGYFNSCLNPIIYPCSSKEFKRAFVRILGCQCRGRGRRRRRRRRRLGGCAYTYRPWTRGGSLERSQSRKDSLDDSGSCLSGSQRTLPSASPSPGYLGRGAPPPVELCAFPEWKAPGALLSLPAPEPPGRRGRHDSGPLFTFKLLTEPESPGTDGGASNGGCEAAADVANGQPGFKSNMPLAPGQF
In short: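 Recombinant human α1B membranes incubated with test compound and 0.3 nM [3H]prazosin, 60 min at 25 °C, in 50 mM Tris-HCl pH 7.4, 10 mM MgCl2, 1 mM EDTA; nonspecific binding with 10 μM prazosin. Filter-bound radioactivity counted; values are % inhibition of specific binding or estimated Ki.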

Percentage inhibition of ligand binding, Adrenergic α2B (10 nM) [1] [%] | Percentage inhibition of ligand binding, Adrenergic α2B (30 nM) [1] [%] | Percentage inhibition of ligand binding, Adrenergic α2B (0.1 μM) [1] [%] | Percentage inhibition of ligand binding, Adrenergic α2A (0.1 μM) [2] [%] | Percentage inhibition of ligand binding, Adrenergic α2A (0.3 μM) ([2]; 0.3 μM compound) [%] | Percentage inhibition of ligand binding, Adrenergic α1B (0.1 μM) [3] [%] | Percentage inhibition of ligand binding, Adrenergic α1B (0.3 μM) ([3]; 0.3 μM compound) [%] | inhibition at 0.1 µM [1] [%] | inhibition at 0.3 µM ([2]; 0.3 μM compound, read-out: Percentage inhibition of ligand binding, Adrenergic α2A (0.3 μM)) [%] | inhibition at 0.3 µM ([3]; 0.3 μM compound, read-out: Percentage inhibition of ligand binding, Adrenergic α1B (0.3 μM)) [%] | pKi ([1]; estimated Ki, read-out: Ki α2B) | pKi ([2]; estimated Ki) | SMILES
38 | 68 | 88 | 9 | 34 | 1 | 18 | – | – | – | – | – | Cc1cc(F)c2c(c1)c1c(n2CC(C)(O)c2cccnc2)CC2CCCN2C1 (single isomer, unassigned) [61a]
−8 | 3 | 28 | 6 | 22 | −7 | 11 | – | – | – | – | – | Cc1cc(F)c2c(c1)c1c(n2CC(C)(O)c2cccnc2)CC2CCCN2C1 (single isomer, unassigned) [61b]
0 | 11 | 23 | −10 | −4 | 0 | 1 | – | – | – | – | – | Cc1cc(F)c2c(c1)c1c(n2CC(C)(O)c2cccnc2)CC2CCCN2C1 (single isomer, unassigned) [61d]
21 | 45 | – | 14 | – | 22 | 43 | 72 | 30 | – | – | – | Cc1cc(F)c2c(c1)c1c(n2CC(C)(O)c2ccncc2)CC2CCCN2C1 (single isomer, unassigned) [62a]
12 | 32 | 62 | 16 | 26 | 2 | 21 | – | – | – | – | – | Cc1cc(F)c2c(c1)c1c(n2CC(C)(O)c2ccncc2)CC2CCCN2C1 (single isomer, unassigned) [62b]
47 | 52 | 65 | 5 | 21 | 10 | 15 | – | – | – | – | – | Cc1cc(F)c2c(c1)c1c(n2CC(C)(O)c2ccncc2)CC2CCCN2C1 (single isomer, unassigned) [62c]
21 | 57 | 82 | 11 | 25 | 12 | 27 | – | – | – | – | – | Cc1cc(F)c2c(c1)c1c(n2CC(C)(O)c2ccncc2)CC2CCCN2C1 (single isomer, unassigned) [62d]
25 | 55 | 84 | 3 | 32 | 2 | 24 | – | – | – | – | – | CC(O)(Cn1c2c(c3cc(Cl)cc(F)c31)CN1CCCC1C2)c1cccnc1 (single isomer, unassigned) [63a]
−6 | −3 | 22 | 0 | 13 | −1 | 1 | – | – | – | – | – | CC(O)(Cn1c2c(c3cc(Cl)cc(F)c31)CN1CCCC1C2)c1cccnc1 (single isomer, unassigned) [63b]
−10 | 5 | – | −13 | −12 | −5 | −4 | – | – | – | – | – | CC(O)(Cn1c2c(c3cc(Cl)cc(F)c31)CN1CCCC1C2)c1cccnc1 (single isomer, unassigned) [63d]
73 | 91 | – | 37 | 61 | 18 | – | 96 | – | 47 | – | – | CC(O)(Cn1c2c(c3cc(C(F)(F)F)ccc31)C1CCCN1CC2)c1cccnc1 (single isomer, unassigned) [64a]
15 | 47 | 76 | 10 | 37 | 4 | 27 | – | – | – | – | – | CC(O)(Cn1c2c(c3cc(C(F)(F)F)ccc31)C1CCCN1CC2)c1cccnc1 (single isomer, unassigned) [64b]
90 | 96 | – | 67 | 84 | 41 | 69 | – | – | – | 9.01 | 7.61 | Cc1cc(F)cc2c3c(n(CC(C)(O)c4cccnc4)c12)CCN1CCCC31 (single isomer, unassigned) [75c]
12 | 21 | 53 | −3 | 12 | −8 | 11 | – | – | – | – | – | Cc1cc(F)cc2c3c(n(CC(C)(O)c4cccnc4)c12)CC1CCCN1C3 (single isomer, unassigned) [76a]
